For experiment [1], the system named is mouse embryos (inner cell mass). The experiment can be described thus: In-vitro embryonic development experiments. The class given is cell-based. The following applies: for proportion of high quality blastocysts: compound alone; for embryos developing into good quality (category A/B) blastocysts: compound alone (20 μM PluriSIn #1 or 100 nm A939572); for embryos developing into good quality blastocysts with oleic acid / proportion of high quality blastocysts with oleic acid: compound with 100 μM oleic acid. The procedure:
Superovulation was induced in female mice (CB6F1/OLAHSD and ICR:HSD(CD-1)), by injection of gonadotropins: intraperitoneal injection of 5 IU PMSG (pregnant mare's serum gonadotropin) at 1:00 P.M. was followed by an intraperitoneal injection of 5 IU hCG (human chorionic gonadotropin) 47 hours later, in accordance with the procedures described by Najy et al. [Manipulating the mouse embryo: a laboratory manual, 3rd Edn., Cold Spring Harbor Laboratory Press (2003)].
Females were mated with stud males immediately after the second injection, and plugging was evident the next morning. Pregnant female mice were sacrificed at approximately 36 hours p.c. (post coitum), and two-cell embryos were collected in accordance with the procedures described by Najy et al. [Manipulating the mouse embryo: a laboratory manual, 3rd Edn., Cold Spring Harbor Laboratory Press (2003)]. The abdominal cavity was opened, and the oviduct was cut and transferred to a Petri dish containing M2 medium at room temperature. The oviduct was flushed with M2 medium, and embryos were picked up using a pipette and washed in M2 medium to rinse off debris. Embryos were then transferred to microdrops of M16 medium. A 35 mm culture dish (Falcon BD) containing drops of 40 μl M16 medium, covered with mineral oil, was prepared the day before, and incubated overnight at a temperature of 37° C. under 5% CO2. Embryos were then transferred to these microdrops following their collection, and incubated at a temperature of 37° C. under 5% CO2. The development of the embryos was examined twice a day using light microscopy imaging. At the morula stage (approximately 3.5 days p.c.), embryos were transferred either to microdrops of 40 μl M16 medium with 20 μM PluriSIn #1 (isonicotinic acid N′-phenylhydrazide) in 0.2% DMSO, or to control microdrops with 0.2% DMSO. Other control embryos were left at the original microdrops to control for possible effects of the transfer itself. At approximately 4 days p.c. and 4.5 days p.c., the embryos were examined using light microscopy imaging, and blastocysts were graded as described by Cortes et al. [Stem Cells and Development 17:255-267 (2008)].
As described in the Materials and Methods section, a series of independent experiments were performed with two strains of mice, in which two-cell embryos were collected from the oviducts of pregnant mice at approximately 1.5 days post coitum, and these embryos were then let to develop in vitro. The embryos reached the morula stage at approximately 3.5 days post coitum, and were then transferred either to drops with 20 μM PluriSIn #1 (17 embryos in total), drops with 20 μM PluriSIn #1 and 100 μM oleic acid (7 embryos in total), or to control drops with 0.2% DMSO (8 embryos in total), while other control embryos were left to develop without transfer at all (10 embryos in total). Using light microscopy imaging, the development of the embryos was followed until they became mature blastocysts (at approximately 4.5 days post coitum, after which all embryos disintegrated in culture). The blastocysts were then classified into three distinct categories: (A) good quality mouse blastocysts with large and distinct ICM; (B) mouse blastocysts with distinct, but smaller, ICM; and (C) bad quality mouse blastocysts with indistinguishable ICM, as described by Cortes et al. [Stem Cells and Development 17:255-267 (2008)].
The above experiments with mouse embryos were then repeated using the SCD1 inhibitor A939572 instead of PluriSIn #1, and compared with the results obtained with PluriSIn #1, in order to confirm that the effects of PluriSIn #1 are associated with inhibition of SCD1 activity.

For the next experiment, the system named is H9 stem cells. The experiment can be described thus: Elimination of undifferentiated cells cultured in 6-well plates. It counts as cell-based, human. As to conditions: 20 μM. From the text: The PluriSIns were first tested in various culture conditions and exposure durations.
A further experiment relates to differentiated SLGCs. The experiment can be described thus: Methylene blue viability, differentiated SLGCs. It counts as cell-based. The following applies: up to 100 μM, 72 hours, 2% fetal bovine serum. The procedure:
For the high-throughput screens, relative cell number was determined using a CellTiter-Glo® Luminescent Cell Viability Assay as described hereinabove. Otherwise, relative cell numbers were determined by fixating the cells with 0.5% glutardialdehyde and staining with methylene blue dissolved in 0.1 M boric acid (pH 8.5). Color extraction was performed using 0.1 M hydrochloric acid, and the staining (which is proportional to cell number) was quantified by measuring absorbance at a wavelength of 650 nm.
In a second experiment, undifferentiated stem-like glioma cells (SLGCs) were compared with SLGCs differentiated by monolayer adhesion and exposure to 1 μM retinoic acid for one week, in accordance with procedures described by Campos et al. [Clinical Cancer Research 16:2715-2728 (2010)]. Differentiation of SLGCs is associated with a reduction in tumorigenicity [Campos et al., Clinical Cancer Research 16:2715-2728 (2010)].
The differentiated and undifferentiated cells were exposed to PluriSIn #1 at concentrations of up to 100 μM for 72 hours under low (2%) fetal bovine serum conditions. Their viability was then measured using a methylene blue viability assay, as described hereinabove.

Several values for one entry are separate records, joined by “and”; a condition that tells them apart may be missing. Identical values can stand only once.

`CNC(=O)c1cccc(NC(=O)N2CCC(Oc3ccccc3Cl)CC2)c1` [A939572, 4-(2-chlorophenoxy)-N-(3-(methylcarbamoyl)-phenyl)piperidine-1-carboxamide, reference compound]: in experiment [1], the “proportion of high quality blastocysts” value is recorded as 56%, the “embryos developing into good quality (category A/B) blastocysts” value is 5 of 9, the “embryos developing into good quality blastocysts with oleic acid” value was 5 of 7 and the “proportion of high quality blastocysts with oleic acid” value was determined as 71%.

As for `O=C(NNc1ccccc1)c1ccncc1` [PluriSIn #1, isonicotinic acid N′-phenylhydrazide], in experiment [1] (20 μM), the “embryos developing into blastocysts with no distinguished ICM (category C)” value is 6 of 17 and 6/17; the “embryos stuck at the morula stage” value is 4 of 17 and 4/17. Further, in experiment [1], the “proportion of high quality blastocysts” value is 41%; the “embryos developing into good quality (category A/B) blastocysts” value is 7 of 17 and 7/17; the “embryos developing into good quality blastocysts with oleic acid” value was 5 of 7; the “proportion of high quality blastocysts with oleic acid” value was determined as 71%. Moreover, in the experiment with H9 stem cells, the “exposure required for complete elimination of undifferentiated cells” value came to 48 h. In addition, in the experiment on differentiated SLGCs, the “effect on differentiated SLGCs” value is “no apparent effect”.

These data come from patent publication US20180153830A1, “SELECTIVE INHIBITORS OF UNDIFFERENTIATED CELLS” (Yissum Research Development Company of the Hebrew …, priority 2012, published 2018).
